In one assay the target is Nanoluciferase-BRD9 fusion protein (3×FLAG-NLuc-BRD9) in SYO-1 cells (Homo sapiens (Human), UniProt Q9H8M2). In words: SYO1 BRD9 NanoLuc degradation assay. Format: cell-based. Conditions: SYO-1 cells expressing 3×FLAG-NLuc-BRD9, 6 hours incubation, top dose 1 μM. As for the experimental part: Procedure: A stable SYO-1 cell line expressing 3×FLAG-NLuc-BRD9 was generated. On day 0 cells were seeded in 30 μL media into each well of 384-well cell culture plates. The seeding density was 8000 cells/well. On day 1, cells were treated with 30 nL DMSO or 30 nL of 3-fold serially DMSO-diluted compounds (10 points in duplicates with 1 μM as final top dose). Subsequently plates were incubated for 6 hours in a standard tissue culture incubator and equilibrated at room temperature for 15 minutes. Nanoluciferase activity was measured by adding 15 μL of freshly prepared Nano-Glo Luciferase Assay Reagent (Promega N1130), shaking the plates for 10 minutes and reading the bioluminescence using an EnVision reader.
Sequence of Nanoluciferase-BRD9 fusion protein (3×FLAG-NLuc-BRD9) in SYO-1 cells (Q9H8M2 whole entry, the tested form may be a part): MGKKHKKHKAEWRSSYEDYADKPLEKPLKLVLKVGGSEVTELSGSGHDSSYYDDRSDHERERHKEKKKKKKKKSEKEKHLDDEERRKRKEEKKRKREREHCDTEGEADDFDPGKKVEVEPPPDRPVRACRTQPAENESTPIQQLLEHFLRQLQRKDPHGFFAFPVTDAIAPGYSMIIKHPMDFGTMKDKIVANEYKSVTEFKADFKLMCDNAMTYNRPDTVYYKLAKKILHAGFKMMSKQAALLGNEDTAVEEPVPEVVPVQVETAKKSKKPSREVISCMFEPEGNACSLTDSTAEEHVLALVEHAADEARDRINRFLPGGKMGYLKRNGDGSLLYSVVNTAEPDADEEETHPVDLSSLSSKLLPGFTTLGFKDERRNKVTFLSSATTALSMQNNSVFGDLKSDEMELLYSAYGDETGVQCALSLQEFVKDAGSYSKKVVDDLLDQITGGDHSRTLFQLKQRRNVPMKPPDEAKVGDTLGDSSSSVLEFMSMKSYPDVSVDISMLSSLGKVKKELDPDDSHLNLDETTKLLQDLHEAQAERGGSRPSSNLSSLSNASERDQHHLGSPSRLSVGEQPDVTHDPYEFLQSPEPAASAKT
Results: The Inhibition % was calculated using the following formula: % Inhibition=100×(LumHC−LumSample)/(LumHC−LumLC). DMSO treated cells are employed as High Control (HC) and 1 μM of a known BRD9 degrader standard treated cells are employed as Low Control (LC).
In general, IC50 refers to the concentration needed to halve the response being measured. As for `CNC(=O)N1CCc2c(-c3cc(OC)c(CNc4ccc5c(c4)C(=O)N(C4CCC(=O)NC4=O)C5=O)c(OC)c3)cn(C)c(=O)c2C1` (centres unmarked) [Compound D111], the IC50 was 10 to 100 nM.
On the same count and under the same terms, the figure for `COc1cc(-c2cn(C)c(=O)c3c2CCN(C(=O)NCCCN2CCC(N4CCN(c5ccc6c(c5)C(=O)N(C5CCC(=O)NC5=O)C6=O)CC4)C2)C3)cc(OC)c1CN(C)C` (centres unmarked) [Compound D227] is less than 10 nM; for `COc1cc(-c2cn(C)c(=O)c3c2CCN(C(=O)NCCN2CCC4(CCN4c4ccc5c(c4)C(=O)N(C4CCC(=O)NC4=O)C5=O)C2)C3)cc(OC)c1CN(C)C` (centres unmarked) [Compound D185] it is 100 to 1000 nM.
In turn, `CNC(=O)N1CCc2c(-c3cc(OC)c(CN4CCC(CCN5CCC(c6ccc7c(c6)C(=O)N(C6CCC(=O)NC6=O)C7)CC5)CC4)c(OC)c3)cn(C)c(=O)c2C1` (centres unmarked) [Compound D73] came in with an IC50 of less than 10 nM.
Turning to `CNC(=S)N1CCc2c(-c3cc(OC)c(CN4CCC(CCN5CCN(c6ccc7c(c6)C(=O)N(C6CCC(=O)NC6=O)C7=O)CC5)CC4)c(OC)c3)cn(C)c(=O)c2C1` (centres unmarked) [Compound D63], the IC50 is less than 10 nM.
On the same count and under the same terms, next, `CNC(=O)N1CCc2c(-c3cc(OC)c(CN4CCN(CCN5CCC(c6ccc7c(c6)C(=O)N(C6CCC(=O)NC6=O)C7=O)CC5)CC4)c(OC)c3)cn(C)c(=O)c2C1` (centres unmarked) [Compound D117]: less than 10 nM.
As for `CNC(=O)N1CCc2c(-c3cc(OC)c(CN4CCC(CCN5CCN(c6ccc7c(c6)C(=O)N(C6CCC(=O)NC6=O)C7=O)CC5)CC4)c(OC)c3)cn(C3CC3)c(=O)c2C1` (centres unmarked) [Compound D118], the IC50 is less than 10 nM.
The same measure, in the same setting: the figure for `CNC(=O)N1CCc2c(-c3cc(OC)c(CN4CCC(CN5Cc6cc7c(cc6C5)C(=O)N(C5CCC(=O)NC5=O)C7=O)CC4)c(OC)c3)cn(C)c(=O)c2C1` (centres unmarked) [Compound D180] is less than 10 nM.
In turn, `CNC(=O)N1CCc2c(-c3cc(OC)c(CN4CCC(CCN5CCN(c6ccc7c(c6OC)CN(C6CCC(=O)NC6=O)C7=O)CC5)CC4)c(OC)c3)cn(C)c(=O)c2C1` (centres unmarked) [Compound D49] displayed a 50% inhibitory concentration (IC50) of less than 10 nM.
Still for that read-out and setting: the figure for `COc1cc(-c2cn(C)c(=O)c3c2CCN(C(=O)NCCN2CCC(OCC4CCN(c5ccc6c(c5)C(=O)N(C5CCC(=O)NC5=O)C6=O)CC4)C2)C3)cc(OC)c1CN(C)C` (centres unmarked) [Compound D206] is 100 to 1000 nM; for `COc1cc(-c2cn(C)c(=O)c3c2CCN(C(=O)NC2CCC4(CCN(CCCN5CCN(c6ccc7c(c6)C(=O)N(C6CCC(=O)NC6=O)C7=O)CC5)C4)C2)C3)cc(OC)c1CN(C)C` (centres unmarked) [Compound D214] it is 100 to 1000 nM; for `COc1cc(-c2cn(C)c(=O)c3c2CCN(C(=O)NC2CCC24CCN(CCCOc2ccc5c(c2)C(=O)N(C2CCC(=O)NC2=O)C5=O)CC4)C3)cc(OC)c1CN(C)C` (centres unmarked) [Compound D237] it is not below 1000 nM.
Take `CNC(=O)N1CCc2c(-c3cc(OC)c(CN4CC(C(=O)N5CC6(CCN(c7ccc8c(c7)C(=O)N(C7CCC(=O)NC7=O)C8=O)C6)C5)C4)c(OC)c3)cn(C)c(=O)c2C1` (centres unmarked) [Compound D144]: the IC50 fell in the range of 10 to 100 nM.
`CNC(=O)N1CCc2c(-c3cc(OC)c(C(C)N4CCC(CN5CCC6(CC5)CC(Oc5ccc7c(c5)C(=O)N(C5CCC(=O)NC5=O)C7=O)C6)CC4)c(OC)c3)cn(C)c(=O)c2C1` (centres unmarked) [Compound D106] showed an IC50 of less than 10 nM.
`COc1cc(-c2cn(C)c(=O)c3c2CCN(C(=O)NC2CC4(CCN(CCCN5CCN(c6ccc7c(c6)C(=O)N(C6CCC(=O)NC6=O)C7=O)CC5)CC4)C2)C3)cc(OC)c1CN(C)C` (centres unmarked) [Compound D216] gave an IC50 not below 1000 nM.
Same read-out and setting: the figure for `[2H]C([2H])([2H])NC(=O)N1CCc2c(-c3cc(OC)c(CN4CCC(CN5CCC6(CC5)CC(Oc5ccc7c(c5)C(=O)N(C5CCC(=O)NC5=O)C7=O)C6)CC4)c(OC)c3)cn(C)c(=O)c2C1` (centres unmarked) [Compound D47] is less than 10 nM; for `COc1cc(-c2cn(C)c(=O)c3c2CCN(C(=O)NC2CC4CC2CN4CCCOc2ccc4c(c2)C(=O)N(C2CCC(=O)NC2=O)C4=O)C3)cc(OC)c1CN(C)C` (centres unmarked) [Compound D270] it is 100 to 1000 nM.
On the same count and under the same terms, next, `COc1cc(-c2cn(C)c(=O)c3c2CCN(C(=O)NCC2CC4(CCN(CCOc5ccc6c(c5)C(=O)N(C5CCC(=O)NC5=O)C6=O)CC4)CO2)C3)cc(OC)c1CN(C)C` (centres unmarked) [Compound D259]: 10 to 100 nM.
Same read-out and setting: the figure for `COc1cc(-c2cn(C)c(=O)c3c2CCN(C(=O)NCCCN2CCC4(CCN(c5ccc6c(c5)C(=O)N(C5CCC(=O)NC5=O)C6=O)C4)C2)C3)cc(OC)c1CN(C)C` (centres unmarked) [Compound D208] is 10 to 100 nM.
On to `CNC(=O)N1CCc2c(-c3cc(OC)c(CN4CCC(N5CCN(c6ccc7c(c6)C(=O)N(C6CCC(=O)NC6=O)C7=O)CC5)CC4)c(OC)c3)cn(C)c(=O)c2C1` (centres unmarked) [Compound D201], for which the IC50 is less than 10 nM.
As for `COc1cc(-c2cn(C)c(=O)c3c2CCN(C(=O)NCC2CC4(C2)CN(c2ccc5c(c2)C(=O)N(C2CCC(=O)NC2=O)C5=O)C4)C3)cc(OC)c1CN(C)C` (centres unmarked) [Compound D115], the half-maximal inhibitory concentration (IC50) was less than 10 nM.
On to `COc1cc(-c2cn(C)c(=O)c3c2CCN(C(=O)NC2C[C@@H]4CN(CCCOc5ccc6c(c5)C(=O)N(C5CCC(=O)NC5=O)C6=O)C[C@H]24)C3)cc(OC)c1CN(C)C` (some centres unmarked) [Compound D248], for which the half-inhibitory concentration (IC50) is not below 1000 nM.
Molecule `CNC(=O)N1CCc2c(-c3cc(OC)c(CN4CCC(CCN(C)C5CCN(c6ccc7c(c6)C(=O)N(C6CCC(=O)NC6=O)C7=O)C5)CC4)c(OC)c3)cn(C)c(=O)c2C1` (centres unmarked) [Compound D197] yielded an IC50 of less than 10 nM.
For the molecule `COc1cc(-c2cn(C)c(=O)c3c2CN(C(=O)N(C)C)CC3)cc(OC)c1CN(C)CCOCCN1CCN(c2ccc3c(c2)C(=O)N(C2CCC(=O)NC2=O)C3=O)CC1` (centres unmarked) [Compound D298], the IC50 was not below 1000 nM.

Still in this assay, the particulars now being: SYO-1 cells, 6 hours, Table 6C.
In turn, `CNC(=O)N1CCc2c(-c3cc(OC)c(CN4CCN(CCC5CCN(c6ccc7c(c6)C(=O)N(C6CCC(=O)NC6=O)C7=O)CC5)CC4)c(OC)c3)c(C)n(C)c(=O)c2C1` (centres unmarked) [Compound D337] had an IC50 not below 1000 nM.
Regarding `COc1cc(-c2cn(C)c(=O)c3c2CCCN3)cc(OC)c1CN1CCC2(CC1)CN(c1ccc3c(c1)CN(C1CCC(=O)NC1=O)C3=O)C2` (centres unmarked) [Compound D360], the IC50 is less than 10 nM.
In turn, `COc1cc(-c2cn(C)c(=O)c3c2CCN(C(=O)NCC(F)F)C3)cc(OC)c1CN1CCN(CCC2CCN(c3ccc4c(c3)C(=O)N(C3CCC(=O)NC3=O)C4)CC2)CC1` (centres unmarked) [Compound D344] returned an IC50 of less than 10 nM.
The same measure, in the same setting: next, `COc1cc(-c2cn(C)c(=O)c3c2COC3)cc(OC)c1CN1CCC2(CC1)CN(c1ccc3c(c1)CN(C1CCC(=O)NC1=O)C3=O)C2` (centres unmarked) [Compound D359]: less than 10 nM; `COc1cc(-c2cn(C)c(=O)c3c2CCN(C(=O)NCC(F)F)C3)cc(OC)c1CN1CCN(CCC2CCN(c3ccc4c(c3)CN(C3CCC(=O)NC3=O)C4=O)CC2)CC1(C)C` (centres unmarked) [Compound D320]: less than 10 nM; `[2H]C([2H])([2H])n1cc(-c2cc(OC)c(CN3CCN(CCC4CCN(c5ccc6c(c5)CN(C5CCC(=O)NC5=O)C6=O)CC4)CC3)c(OC)c2)c2c(c1=O)CN(C(=O)NCC(F)F)CC2` (centres unmarked) [Compound D317]: less than 10 nM.
For the molecule `COc1cc(-c2cn(C)c(=O)c3c2CCN(C(=O)NCC(F)F)C3)cc(OC)c1CN1CCN(CCC2CCN(c3ccc4c(c3)C(=O)N(C3CCC(=O)NC3=O)C4)CC2)CC12CCC2` (centres unmarked) [Compound D333], the IC50 is less than 10 nM.
`CNC(=O)N1CCc2c(-c3cc(OC)c(CN4[C@H](C)CN(CCC5CCN(c6ccc7c(c6)C(=O)N(C6CCC(=O)NC6=O)C7)CC5)C[C@H]4C)c(OC)c3)cn(C)c(=O)c2C1` (some centres unmarked) [Compound D326] registered an IC50 of less than 10 nM.

Values taken from patent publication US12384776B2, “Compounds and uses thereof” (Foghorn Therapeutics Inc., priority 2019, dated 2025).
